The values below come from patent US7811352B2, “Fertilizer compositions and methods of using” (priority 2005, dated 2010).

Series [1] concerns Bermuda grass. The series is described as follows: Phytotoxicity rating, Bermuda grass fairway (Example 10). The format is in vivo. The settings on record: scale 0-5, 5=worst. The text has this: In this Example, the effect of a fertilizer comprising lysine on warm season turfgrass growth was examined. The effects of lysine (HCl) and LIQUID LYSINE on a common type of golf course fairway quality turfgrass (Bermuda grass) were compared with those of urea and Milorganite.
Fifteen fertilizer treatments comprising three concentrations of each fertilizer composition (Milorganite (N—P—K, 6-2-0), urea (N—P—K, 46-0-0), LIQUID LYSINE (N—P—K, 10-2-1), and both granular and aqueous lysine (HCl) (N—P—K, 15-2-1)) were prepared and applied to 4 replications of Bermuda grass. The aqueous lysine (HCl) was dissolved in water prior to application. Each fertilizer treatment was applied in concentrations of 0.5 lb N/1000 ft^2/month, 1.0 lb N/1000 ft^2/month and 3.0 lb N/1000 ft^2/month. The urea, LIQUID LYSINE and aqueous lysine (HCl) were applied as foliar liquids, while Milorganite and granular lysine (HCl) were applied as granular fertilizers Plot size was 1 m×2 m set up as a randomized complete block. Plots were mowed at 0.5 inches before fertilizer application. Irrigation (0.15 inch) was applied following application. Plots were rated for turfgrass quality and color (scale of 1-10 where 10=dark green turf, 1=dead/brown turf, and 6=minimally acceptable turf) and phytotoxicity (scale of 0-5, where 5=worst, and 2=minimally objectionable) throughout the study period. Quality, color, and phytotoxicity were measured on 2 days before application (day −2) and day 2, day 5, day 15 and day 21 after application. All data was subject to statistical analysis and significant means were determined. Average turfgrass quality ratings for the treatments are presented in Table 9 and the quality results for application rates of 1.0 lb N/1000 ft^2/month are graphically presented in FIG. 4.

For series [2], the system named is fairway height, creeping bentgrass. The experiment in a line: Color rating of fairway height creeping bentgrass after fertilization (Example 6). The format is in vivo. The settings on record: about two weeks after application. The protocol:
In this Example, the efficacy of fertilizers on fairway height, creeping bentgrass was examined. Fertilizer compositions according to several embodiments of the present disclosure were prepared and compared to the commercial fertilizer products, urea 46-0-0 (granular) fertilizer, Lebanon fertilizer 21-0-12 (granular, commercially available from Lebanon Seaboard Corporation, Lebanon, Pa.) and Milorganite 6-2-0 (granular, commercially available from Milorganite, Milwaukee, Wis.). The fertilizer compositions were applied to turf prior to winter dormancy at a rate equivalent to supplying about 1.0 pounds of nitrogen (N) per 1000 square feet. Each of the fertilizer compositions were applied at substantially equal rates of lbs of nitrogen (N) per 1000 square feet. Table 3 illustrates the response of fairway height, creeping bentgrass to fertilization using various exemplary fertilizers of the present invention, taken about two weeks after application of the fertilizer. The letters in the Color and Injury columns correspond to Duncan's Multiple Range Test. Numbers (means) in a column followed by the same letter are not statistically different at P=0.05.

Series [3] in a line: Solubility of L-lysine (HCl) in water. The format is physicochemical. The conditions noted are these: at 25° C., read-out: solubility in H2O.
The test system of series [4] is Bermuda grass. The series is described as follows: Turfgrass quality and color ratings, Bermuda grass golf course fairways (Example 13). The format is in vivo. The settings on record: scale 1-10. The protocol:
In this Example, the effect of a fertilizer comprising lysine on turfgrass growth was examined. The effects of lysine (HCl) and LIQUID LYSINE on a common type of golf course fairway quality turfgrass (Bermuda green) were compared with those of CoRoN® brand fertilizer.
Six fertilizer treatments comprising two concentrations of each fertilizer composition (Coron® (N—P—K, 14-2-14), LIQUID LYSINE (N—P—K, 10-2-1), and lysine (HCl) (N—P—K, 15-2-1)) were prepared and applied to 3 replications of Bermuda grass for use on golf course fairways. The lysine (HCl) was applied as a granular using a Scotts 2 foot drop spreader on a setting of 4.5. The solutions of LIQUID LYSINE and Coran were applied using a Birchmeier backpack sprayer with a 5 foot spray pattern. Each fertilizer treatment was applied in concentrations 3.0 lb N/1000 ft^2 and 6.0 lb N/1000 ft^2. Plot size was 5 ft×60 ft set up as a randomized complete block. Irrigation was applied following application, Plots were rated for turfgrass quality and color (scale of 1-10 where 10=dark green turf 1=dead/brown turf and 6=minimally acceptable turf) and phytotoxicity (% burn) throughout the study period and compared with two untreated plots. […] All data was subject to statistical analysis and significant means were determined.

Setting [5] is: Rate 3.0 lb N/1000 ft^2, Day 12.
Setting [6] is: Rate 3.0 lb N/1000 ft^2, Day 19.
Setting [7] is: Rate 3.0 lb N/1000 ft^2, Day 26.
[8] abbreviates: Rate 3.0 lb N/1000 ft^2, Day 33.
Setting [9] is: Rate 3.0 lb N/1000 ft^2, Day 40.
[10] abbreviates: Rate 3.0 lb N/1000 ft^2, Day 47.
The mark [11] stands for this setting: Rate 6.0 lb N/1000 ft^2, Day 12.
The mark [12] stands for this setting: Rate 6.0 lb N/1000 ft^2, Day 19.
Where [13] appears, read: Rate 6.0 lb N/1000 ft^2, Day 26.
Where [14] appears, read: Rate 6.0 lb N/1000 ft^2, Day 33.
[15] abbreviates: Rate 6.0 lb N/1000 ft^2, Day 40.
[16] abbreviates: Rate 6.0 lb N/1000 ft^2, Day 47.

With `NC(N)=O` [Urea, urea, reference compound], the “Phytotoxicity - Bermuda Grass” value with Bermuda grass [1] (Monthly Rate 0.5 lbs N/1000 ft^2, Day 2) stood at 0.0b; in the series with Bermuda grass [1] (Monthly Rate 0.5 lbs N/1000 ft^2, Day 5), 0; in the series with Bermuda grass [1] (Monthly Rate 0.5 lbs N/1000 ft^2, Day 15), 0; in the series on Bermuda grass [1] (Monthly Rate 0.5 lbs N/1000 ft^2, Day 21), 0; with Bermuda grass [1] (Monthly Rate 0.5 lbs N/1000 ft^2, Day −2 (before application)) it was 0; in the series with Bermuda grass [1] (Monthly Rate 1.0 lbs N/1000 ft^2, Day 2) it was 0.0b. Also, the “Phytotoxicity - Bermuda Grass” value in the series on Bermuda grass [1] (Monthly Rate 1.0 lbs N/1000 ft^2, Day 5) was found to be 0; in the series with Bermuda grass [1] (Monthly Rate 1.0 lbs N/1000 ft^2, Day 15), 0; in the series on Bermuda grass [1] (Monthly Rate 1.0 lbs N/1000 ft^2, Day 21) it was 0; with Bermuda grass [1] (Monthly Rate 1.0 lbs N/1000 ft^2, Day −2 (before application)), 0; with Bermuda grass [1] (Monthly Rate 3.0 lbs N/1000 ft^2, Day 2), 0.0b; in the series with Bermuda grass [1] (Monthly Rate 3.0 lbs N/1000 ft^2, Day 5) it was 0. Also, the “Phytotoxicity - Bermuda Grass” value in the series on Bermuda grass [1] (Monthly Rate 3.0 lbs N/1000 ft^2, Day 15) turned out to be 0; in the series on Bermuda grass [1] (Monthly Rate 3.0 lbs N/1000 ft^2, Day 21), 0; in the series with Bermuda grass [1] (Monthly Rate 3.0 lbs N/1000 ft^2, Day −2 (before application)), 0. Also, the “Color 1-9 (9 = dark green)” value worked out at 6.7 in series [2] (1.09 Lbs. product/1000 square feet), 7.0 in series [2] (2.17 Lbs. product/1000 square feet) and 7.7 in series [2] (6.51 Lbs. product/1000 square feet).
Turning to `Cl.NCCCC[C@H](N)C(=O)O` [Lys (HCl) 15% N, L-lysine monohydrochloride], the solubility in series [3] lay within 500 to 600 mg/mL. The “Color Ratings - Bermuda Grass” value came to 5.7ab with Bermuda grass [4] (Rate 3.0 lb N/1000 ft^2, Day 7); 6.0b in the series on Bermuda grass [4] (setting [5]); 6.7a in the series on Bermuda grass [4] (setting [6]); 7.3a in the series on Bermuda grass [4] (setting [7]); 7.7ab in the series on Bermuda grass [4] (setting [8]); 7.0b in the series on Bermuda grass [4] (setting [9]). The “Color Ratings - Bermuda Grass” value with Bermuda grass [4] (setting [10]) turned out to be 7.0bc; in the series with Bermuda grass [4] (Rate 6.0 lb N/1000 ft^2, Day 7), 5.3ab; in the series with Bermuda grass [4] (setting [11]), 6.7a; with Bermuda grass [4] (setting [12]), 7.0a; in the series on Bermuda grass [4] (setting [13]), 7.7a; in the series with Bermuda grass [4] (setting [14]), 7.7ab. The “Color Ratings - Bermuda Grass” value in the series on Bermuda grass [4] (setting [15]) and with Bermuda grass [4] (setting [16]) was 7.3ab throughout. The “Quality Ratings - Bermuda Grass” value was determined as 6.7a in the series with Bermuda grass [4] (Rate 3.0 lb N/1000 ft^2, Day 7); 7.3ab in the series with Bermuda grass [4] (setting [5]); 7.3ab with Bermuda grass [4] (setting [6]); 7.7ab in the series on Bermuda grass [4] (setting [7]); 8.0a in the series with Bermuda grass [4] (setting [8]); 7.0b in the series with Bermuda grass [4] (setting [9]). The “Quality Ratings - Bermuda Grass” value with Bermuda grass [4] (setting [10]) was 7.3ab; with Bermuda grass [4] (Rate 6.0 lb N/1000 ft^2, Day 7) it was 6.7a; in the series with Bermuda grass [4] (setting [11]), 7.3ab; in the series on Bermuda grass [4] (setting [12]) it was 7.3ab; with Bermuda grass [4] (setting [13]) it was 7.7ab; with Bermuda grass [4] (setting [14]) it was 7.7a. The figures for the “Quality Ratings - Bermuda Grass” value with Bermuda grass [4] (setting [15]) and with Bermuda grass [4] (setting [16]) were 7.0b and 7.7a, respectively.
